Measurements: ChEMBL document CHEMBL1151469, “Cytotoxic activity of N-chlorotaurine on Acanthamoeba spp” (Antimicrob Agents Chemother, 2008)
Activity calls are given as the source filed them. No cut-off for these calls is given here.

Legend:
Acanthamoeba polyphaga [1] = assay: Amoebicidal activity against Trophozoites of Acanthamoeba polyphaga 5SU assessed as reduction in killing time at 10 mM in phosphate buffered saline at pH 5 by hemocytometer using trypan blue stain in presence of 160 mM beta-alanine; format: functional, organism-based
Acanthamoeba castellanii [2] = assay: Amoebicidal activity against excysted trophozoites of Acanthamoeba castellanii 40AB at 55 mM in peptone yeast extract glucose medium after 24 hrs by hemocytometer using trypan blue stain; format: functional
Acanthamoeba hatchetti [3] = assay: Amoebicidal activity against Trophozoites of Acanthamoeba hatchetti 11DS assessed as log reduction in cell count at 10 mM in phosphate buffered saline after 24 hrs by hemocytometer using trypan blue staining; format: functional, organism-based
Acanthamoeba polyphaga [4] = assay: Amoebicidal activity against Trophozoites of Acanthamoeba polyphaga 5SU at 55 mM in phosphate buffered saline at pH 7 after 1 hr by hemocytometer using trypan blue stain in presence of 190 mM ammonium chloride; format: functional, organism-based
Acanthamoeba polyphaga [5] = assay: Amoebicidal activity against Trophozoites of Acanthamoeba polyphaga 5SU assessed as log reduction in cell count at 10 mM in phosphate buffered saline at pH 5 after 1 hr by hemocytometer using trypan blue stain in presence of 160 mM beta-alanine; format: functional, organism-based
Acanthamoeba polyphaga [6] = assay: Amoebicidal activity against Trophozoites of Acanthamoeba polyphaga 5SU assessed as complete loss of viability at 55 mM in phosphate buffered saline incubated in xenic agar medium after 14 days by hemocytometer using trypan blue stain in presence of 190 mM ammonium chloride; format: functional, organism-based
Acanthamoeba hatchetti [7] = assay: Amoebicidal activity against excysted trophozoites of Acanthamoeba hatchetti 11DS at 55 mM in peptone yeast extract glucose medium after 11 days by hemocytometer using trypan blue stain; format: functional
Acanthamoeba hatchetti [8] = assay: Amoebicidal activity against Trophozoites of Acanthamoeba hatchetti 11DS assessed as reduction of killing time at 10 mM in phosphate buffered saline at pH 5 by hemocytometer using trypan blue stain in presence of 160 mM beta-alanine; format: functional
Acanthamoeba polyphaga [9] = assay: Amoebicidal activity against Trophozoites of Acanthamoeba polyphaga 5SU assessed as reduction in cell count at 20 mM in peptone yeast extract glucose medium at pH 7 after 6 hrs by hemocytometer using trypan blue stain in presence of 580 mM ammonium chloride; format: functional, organism-based
Acanthamoeba hatchetti [10] = assay: Amoebicidal activity against Trophozoites of Acanthamoeba hatchetti 11DS in phosphate buffered saline at pH 7 after 24 hrs by hemocytometer using trypan blue stain in presence of 34 mM ammonium chloride; format: functional, organism-based
Acanthamoeba castellanii [11] = assay: Amoebicidal activity against Trophozoites of Acanthamoeba castellanii 4CL assessed as log reduction in cell count at 20 mM in peptone yeast extract glucose medium at pH 7 after 24 hrs by hemocytometer using trypan blue stain; format: functional
Acanthamoeba hatchetti [12] = assay: Amoebicidal activity against Trophozoites of Acanthamoeba hatchetti 11DS assessed as killing time at 55 mM in peptone yeast extract glucose medium at pH 7 by hemocytometer using trypan blue stain; format: functional
Acanthamoeba polyphaga [13] = assay: Amoebicidal activity against Trophozoites of Acanthamoeba polyphaga 5SU in peptone yeast extract glucose medium at pH 7 after 1 hr by hemocytometer using trypan blue stain in presence of 68 mM ammonium chloride; format: functional, organism-based
Acanthamoeba polyphaga [14] = assay: Amoebicidal activity against excysted trophozoites of Acanthamoeba polyphaga 5SU at 55 mM in peptone yeast extract glucose medium after 6 days by hemocytometer using trypan blue stain; format: functional
Acanthamoeba polyphaga [15] = assay: Amoebicidal activity against Trophozoites of Acanthamoeba polyphaga 5SU assessed as increase in reduction in cell count at 20 mM in peptone yeast extract glucose medium at pH 7 after 6 hrs by hemocytometer using trypan blue stain; format: functional, organism-based
Acanthamoeba hatchetti [16] = assay: Amoebicidal activity against Trophozoites of Acanthamoeba hatchetti 11DS assessed as killing time at 10 mM in phosphate buffered saline at pH 5 by hemocytometer using trypan blue stain in presence of 290 mM ammonium chloride; format: functional
Acanthamoeba polyphaga [17] = assay: Amoebicidal activity against Trophozoites of Acanthamoeba polyphaga 5SU assessed as log reduction in cell count at 10 mM in phosphate buffered saline at pH 5 after 6 hrs by hemocytometer using trypan blue stain in presence of 34 mM ammonium chloride; format: functional, organism-based
Acanthamoeba castellanii [18] = assay: Amoebicidal activity against excysted trophozoites of Acanthamoeba castellanii 4CL at 55 mM in peptone yeast extract glucose medium after 6 days by hemocytometer using trypan blue stain; format: functional
Acanthamoeba polyphaga [19] = assay: Amoebicidal activity against Trophozoites of Acanthamoeba polyphaga 5SU in peptone yeast extract glucose medium at pH 7 after 6 hrs by hemocytometer using trypan blue stain in presence of 68 mM ammonium chloride; format: functional, organism-based
Acanthamoeba polyphaga [20] = assay: Amoebicidal activity against Trophozoites of Acanthamoeba polyphaga 5SU assessed as log reduction in cell count at 10 mM in phosphate buffered saline at pH 5 after 6 hrs by hemocytometer using trypan blue stain; format: functional, organism-based
Acanthamoeba hatchetti [21] = assay: Amoebicidal activity against Trophozoites of Acanthamoeba hatchetti 11DS assessed as log reduction in cell count at 10 mM in phosphate buffered saline at pH 7 after 6 hrs by hemocytometer using trypan blue stain; format: functional
Acanthamoeba hatchetti [22] = assay: Amoebicidal activity against Trophozoites of Acanthamoeba hatchetti 11DS assessed as increase in reduction in cell count at 20 mM in peptone yeast extract glucose medium at pH 7 after 6 hrs by hemocytometer using trypan blue stain in presence of 68 mM ammonium chloride; format: functional, organism-based
Acanthamoeba hatchetti [23] = assay: Amoebicidal activity against Trophozoites of Acanthamoeba hatchetti 11DS in peptone yeast extract glucose medium at pH 7 after 6 hrs by hemocytometer using trypan blue stain; format: functional, organism-based
Acanthamoeba hatchetti [24] = assay: Amoebicidal activity against Trophozoites of Acanthamoeba hatchetti 11DS in phosphate buffered saline at pH 7 after 6 hrs by hemocytometer using trypan blue stain in presence of 34 mM ammonium chloride; format: functional, organism-based
Acanthamoeba castellanii [25] = assay: Amoebicidal activity against excysted trophozoites of Acanthamoeba castellanii 4CL at 55 mM in peptone yeast extract glucose medium after 11 days by hemocytometer using trypan blue stain; format: functional
Acanthamoeba castellanii [26] = assay: Amoebicidal activity against excysted trophozoites of Acanthamoeba castellanii 4CL at 55 mM in peptone yeast extract glucose medium after 24 hrs by hemocytometer using trypan blue stain; format: functional
Acanthamoeba polyphaga [27] = assay: Amoebicidal activity against excysted trophozoites of Acanthamoeba polyphaga 5SU at 55 mM in peptone yeast extract glucose medium after 4 days by hemocytometer using trypan blue stain; format: functional
Acanthamoeba hatchetti [28] = assay: Amoebicidal activity against Trophozoites of Acanthamoeba hatchetti 11DS in peptone yeast extract glucose medium at pH 7 after 1 hr by hemocytometer using trypan blue stain in presence of 68 mM ammonium chloride; format: functional, organism-based
Acanthamoeba hatchetti [29] = assay: Amoebicidal activity against Trophozoites of Acanthamoeba hatchetti 11DS assessed as log reduction in cell count at 10 mM in phosphate buffered saline at pH 5 after 24 hrs by hemocytometer using trypan blue staining in presence of 160 mM mM beta-alanine; format: functional, organism-based
Acanthamoeba polyphaga [30] = assay: Amoebicidal activity against Trophozoites of Acanthamoeba polyphaga 5SU assessed as prevention of sporadic cysts formation at 55 mM in phosphate buffered saline at pH 7 by hemocytometer using trypan blue stain; format: functional, organism-based
Acanthamoeba hatchetti [31] = assay: Amoebicidal activity against Trophozoites of Acanthamoeba hatchetti 11DS assessed as complete killing time at 55 mM in phosphate buffered saline at pH 7 after 3 hrs by hemocytometer using trypan blue stain in presence of 190 mM ammonium chloride; format: functional, organism-based
Acanthamoeba hatchetti [32] = assay: Amoebicidal activity against Trophozoites of Acanthamoeba hatchetti 11DS assessed as rounding of the cells at 55 mM in peptone yeast extract glucose medium at pH 7 after 30 mins by hemocytometer using trypan blue stain; format: functional, organism-based
Acanthamoeba castellanii [33] = assay: Amoebicidal activity against Trophozoites of Acanthamoeba castellanii 4CL assessed as log reduction in cell count at 10 mM in phosphate buffered saline at pH 7 after 6 hrs by hemocytometer using trypan blue stain; format: functional

In the case of `O=S(=O)(O)CCNCl`, the Activity (Acanthamoeba polyphaga [1]) is reported as “inactive”, the Activity (Acanthamoeba castellanii [2]) is reported as 0 and the Activity (Acanthamoeba hatchetti [3]) is reported as “Active”. For the same compound, the Activity (Acanthamoeba polyphaga [4]) was “Active”, the Activity (Acanthamoeba polyphaga [5]) was “Active” and the Activity (Acanthamoeba polyphaga [6]) was “inactive”. For the same compound, the Activity (Acanthamoeba hatchetti [7]) was 410000, the Activity (Acanthamoeba hatchetti [8]) was 15 h and the Activity (Acanthamoeba polyphaga [9]) was “Active”. It also gave an EC50 (Acanthamoeba hatchetti [10]) of 5.11 mM, an EC90 (Acanthamoeba hatchetti [10]) of 9.13 mM and an Activity (Acanthamoeba castellanii [11]) of 2. The Activity (Acanthamoeba hatchetti [12]) was 3 h, the EC50 (Acanthamoeba polyphaga [13]) was 16.6 mM and the Activity (Acanthamoeba polyphaga [14]) was 18000. For the same compound, the Activity (Acanthamoeba polyphaga [15]) was “Active”, the Activity (Acanthamoeba hatchetti [16]) was 24 h and the Activity (Acanthamoeba polyphaga [17]) was “Active”. The Activity (Acanthamoeba castellanii [18]) was 7200, the EC50 (Acanthamoeba polyphaga [19]) was 12.9 mM and the Activity (Acanthamoeba polyphaga [20]) was “Active”. For the same compound, the Activity (Acanthamoeba hatchetti [21]) was 2, the Activity (Acanthamoeba hatchetti [22]) was “Active” and the EC50 (Acanthamoeba hatchetti [23]) was 9.15 mM. For the same compound, the EC50 (Acanthamoeba hatchetti [24]) was 5.19 mM, the EC90 (Acanthamoeba hatchetti [24]) was 9.13 mM and the Activity (Acanthamoeba castellanii [25]) was 100000. The Activity (Acanthamoeba castellanii [26]) was 0, the Activity (Acanthamoeba polyphaga [27]) was 8000 and the EC50 (Acanthamoeba hatchetti [28]) was 13.9 mM. The Activity (Acanthamoeba hatchetti [29]) was “Active”, the Activity (Acanthamoeba polyphaga [30]) was “inactive” and the Activity (Acanthamoeba hatchetti [31]) was “Active”. For the same compound, the Activity (Acanthamoeba hatchetti [32]) was “Active” and the Activity (Acanthamoeba castellanii [33]) was 2.
